Here are results for ten molecules from ChEMBL document CHEMBL1201862, “PubChem BioAssay data set” (2004).

Among the test systems are CCRF-CEM; MDA-MB-231; OVCAR-5; HCC 2998; ACHN; MOLT-4; SK-OV-3; SNB-75; HOP-62; NCI/ADR-RES; HL-60; OVCAR-3; UACC-257; SNB-19; HCT-15; UACC-62; BT-549; RXF 393; OVCAR-4.
What all share (test): NCI-60 cell line screen, 48 h

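Step 1: Grow cells in 96-well plates. Step 2: Expose to compound for 48 hours at 5 concentrations. Step 3: Interpolate endpoints linearly; if unreached, use highest concentration. Here, GI50 denotes the concentration required for 50% inhibition of growth.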 Activity calls are given as the source filed them. No stated cut-off is given here; in the data, active = GI50 up to about 1.1 µM and inactive = higher.

For the molecule `CCCCC(C#N)(OP1(=O)OC(c2ccccc2)C(C)N1C)c1ccccc1` (configuration not stated), the GI50 in the assay on CCRF-CEM is 20.3 µM (inactive); in the assay on MDA-MB-231, 15.7 µM (inactive); with OVCAR-5 it was 17.1 µM (inactive); in the assay with HCC 2998, 15.1 µM (inactive); in the assay on ACHN, 19 µM (inactive); with MOLT-4, 15.7 µM (inactive). For the same molecule, the GI50 in the assay on SK-OV-3 was 19.5 µM (inactive); with SNB-75, 18.2 µM (inactive); with HOP-62, 21.6 µM (inactive); with NCI/ADR-RES, 20 µM (inactive); in the assay with HL-60, 14.4 µM (inactive); in the assay with OVCAR-3, 16.6 µM (inactive). Besides, the GI50 in the assay with UACC-257 was 18.3 µM (inactive); with SNB-19, 19.2 µM (inactive); with HCT-15 it was 20.3 µM; in the assay with UACC-62 it was 14.3 µM (inactive); with BT-549 it was 20.3 µM (inactive); with RXF 393, 16.6 µM (inactive).
On to `CCOC(=O)c1ccc(C(=O)/C(C#N)=C2\CCCN2)[nH]1`, for which the GI50 with CCRF-CEM is 63.2 µM (inactive); in the assay on MDA-MB-231, > 100 µM (inactive); with OVCAR-5 it was > 100 µM (inactive); in the assay with HCC 2998, > 100 µM (inactive); with MOLT-4 it was 48.2 µM (inactive); in the assay with SK-OV-3, > 100 µM (inactive). Besides, the GI50 in the assay with SNB-75 is 34 µM (inactive); in the assay with HOP-62, > 100 µM (inactive); in the assay on NCI/ADR-RES it was 78.3 µM (inactive); in the assay on HL-60, 66.5 µM (inactive); in the assay with OVCAR-3 it was 82.2 µM (inactive); in the assay with OVCAR-4, > 100 µM (inactive). For the same molecule, the GI50 with UACC-257 is > 100 µM (inactive); with SNB-19, > 100 µM (inactive); in the assay with HCT-15, over 100 µM; in the assay on UACC-62, > 100 µM (inactive); in the assay with BT-549, > 100 µM (inactive); in the assay with RXF 393, 14.8 µM (inactive).
Take `COc1cc([C@@H]2c3cc4c(cc3[C@@H](/N=C/c3ccc(C(=O)O[C@H]5C[C@H]6OC[C@@]6(OC(C)=O)[C@H]6[C@H](OC(=O)c7ccccc7)[C@]7(O)C[C@H](OC(=O)[C@H](OC(=O)c8ccc(/C=N/[C@@H]9c%10cc%11c(cc%10[C@@H](c%10cc(OC)c(O)c(OC)c%10)[C@H]%10C(=O)OC[C@@H]%109)OCO%11)cc8)[C@@H](NC(=O)c8ccccc8)c8ccccc8)C(C)=C([C@@H](OC(C)=O)C(=O)[C@]56C)C7(C)C)cc3)C3COC(=O)C32)OCO4)cc(C)c1O` (some centres not stated): the GI50 in the assay on CCRF-CEM is 30 µM (inactive); with MDA-MB-231, > 25.2 µM (inactive); in the assay on OVCAR-5, > 15.5 µM (inactive); with HCC 2998, > 50 µM (inactive); in the assay with ACHN, 20.8 µM (inactive); in the assay with MOLT-4 it was 16.3 µM (inactive). The GI50 with SK-OV-3 is 9.2 µM (inactive); in the assay on SNB-75, 4.25 µM (inactive); in the assay with HOP-62, 12.7 µM (inactive); in the assay on NCI/ADR-RES it was 15.2 µM (inactive); with HL-60 it was > 13.9 µM (inactive); with OVCAR-3, 6.85 µM (inactive). Also, the GI50 in the assay with OVCAR-4 is > 29.6 µM (inactive); in the assay with UACC-257 it was 26.2 µM (inactive); in the assay on SNB-19, 17.5 µM (inactive); with HCT-15, 19.2 µM; with UACC-62, 6.32 µM (inactive); in the assay on BT-549, 49.7 µM (inactive). The GI50 in the assay on RXF 393 is 2.96 µM (inactive).
As for `O=C1c2c(ccc3c2CCCC3)CC12Cc1ccccc1C2`, the GI50 in the assay with CCRF-CEM is 10.8 µM (inactive); in the assay with MDA-MB-231, 18.1 µM (inactive); with OVCAR-5 it was 21.8 µM (inactive); in the assay on HCC 2998, 19.1 µM (inactive); in the assay on ACHN, 7.73 µM (inactive); in the assay with MOLT-4, 4.03 µM (inactive). The GI50 in the assay with SK-OV-3 is 30.6 µM (inactive); with SNB-75 it was 20.4 µM (inactive); with HOP-62, 16.8 µM (inactive); in the assay on NCI/ADR-RES, 15.8 µM (inactive); in the assay with HL-60, 11.2 µM (inactive); in the assay with OVCAR-3, 9.93 µM (inactive). The GI50 in the assay with OVCAR-4 is 40.8 µM (inactive); in the assay with UACC-257, 16.6 µM (inactive); in the assay on SNB-19, 58.6 µM (inactive); in the assay on HCT-15, 4.75 µM; in the assay with UACC-62 it was 13.5 µM (inactive); in the assay with BT-549, 81.8 µM (inactive). Moreover, the GI50 in the assay on RXF 393 is 11 µM (inactive).
`O=C(NI1OC(=O)c2ccccc21)c1ccc(Cl)cc1`: the GI50 is 85.5 µM (inactive) with CCRF-CEM; > 100 µM (inactive) with MDA-MB-231; > 100 µM (inactive) with OVCAR-5; 76.2 µM (inactive) with HCC 2998; > 100 µM (inactive) in the assay with ACHN; > 100 µM (inactive) in the assay on SK-OV-3. Moreover, the GI50 with SNB-75, in the assay with HOP-62, in the assay with NCI/ADR-RES, with HL-60, in the assay on OVCAR-3 and with OVCAR-4 was > 100 µM (inactive) in each case. Also, the GI50 in the assay on UACC-257 was > 100 µM (inactive); in the assay with HCT-15 it was 96.6 µM; in the assay with UACC-62, 51.6 µM (inactive); in the assay with BT-549, > 100 µM (inactive); with RXF 393, > 100 µM (inactive).
With `Cc1ccc(/C=C2\CCC/C(=C\c3ccc(O)c(CN4CCCCC4)c3)C2=O)cc1`, the GI50 in the assay with MDA-MB-231 is 5.41 µM (inactive); in the assay on OVCAR-5, 17.4 µM (inactive); in the assay on HCC 2998 it was 4.46 µM (inactive); with ACHN, 5.61 µM (inactive); with MOLT-4, 3.6 µM (inactive); in the assay with SK-OV-3 it was 13.2 µM (inactive). Besides, the GI50 in the assay with SNB-75 was 6.49 µM (inactive); in the assay on HOP-62, 15.3 µM (inactive); in the assay with NCI/ADR-RES, 4.07 µM (inactive); with HL-60, 3.52 µM (inactive); in the assay with OVCAR-3 it was 10.9 µM (inactive); in the assay on OVCAR-4 it was 11.1 µM (inactive). For the same molecule, the GI50 in the assay with UACC-257 was 5.09 µM (inactive); in the assay on SNB-19 it was 16.2 µM (inactive); in the assay on HCT-15, 3.02 µM; with UACC-62, 3.92 µM (inactive); with BT-549 it was 6.62 µM (inactive); in the assay with RXF 393, 14.1 µM (inactive).
As to `CN(C)CCOc1ccc(I)cc1Cc1ccccc1`, the GI50 is 4.85 µM (inactive) with CCRF-CEM; 3.89 µM (inactive) with MDA-MB-231; 14.7 µM (inactive) in the assay on OVCAR-5; 3.29 µM (inactive) in the assay on HCC 2998; 12.2 µM (inactive) in the assay with ACHN; 5.21 µM (inactive) with MOLT-4. Moreover, the GI50 in the assay with SK-OV-3 was 18.6 µM (inactive); with SNB-75, 1.52 µM (inactive); in the assay with HOP-62, 13.9 µM (inactive); in the assay on NCI/ADR-RES it was 13.8 µM (inactive); in the assay on HL-60, 4.74 µM (inactive); in the assay with OVCAR-3 it was 13.2 µM (inactive). Moreover, the GI50 with OVCAR-4 was 11.8 µM (inactive); with UACC-257 it was 15.2 µM (inactive); in the assay on SNB-19, 13.7 µM (inactive); in the assay with HCT-15 it was 12.2 µM; in the assay with UACC-62, 3.28 µM (inactive); with BT-549, 14 µM (inactive). The GI50 in the assay with RXF 393 is 15 µM (inactive).
`COc1ccc(OC)c2sc(N3C(=O)/C(=C/c4ccc(Cl)cc4)N=C3c3ccccc3)nc12`: the GI50 in the assay with CCRF-CEM was 37 µM (inactive); in the assay with MDA-MB-231, > 100 µM (inactive); with OVCAR-5 it was > 100 µM (inactive); with HCC 2998, 80.2 µM (inactive); in the assay on ACHN it was > 100 µM (inactive); in the assay on MOLT-4 it was 24.7 µM (inactive). Moreover, the GI50 is > 100 µM (inactive) in the assay with SK-OV-3; 89.3 µM (inactive) in the assay with SNB-75; > 100 µM (inactive) in the assay with HOP-62; > 100 µM (inactive) with NCI/ADR-RES; 40.6 µM (inactive) in the assay with HL-60; 46.3 µM (inactive) with OVCAR-3. The GI50 with UACC-257 is 51.2 µM (inactive); with SNB-19 it was > 100 µM (inactive); with HCT-15, 98.4 µM; in the assay on UACC-62 it was 76.6 µM (inactive); in the assay with BT-549 it was > 100 µM (inactive); with RXF 393 it was 78.5 µM (inactive).
In the case of `CN(C)c1ccc(/C=C2\N=C(c3ccccc3)N(c3nc4ccc(Sc5ccccc5)cc4[nH]3)C2=O)cc1`, the GI50 was 16.7 µM (inactive) with CCRF-CEM; 49.1 µM (inactive) in the assay with MDA-MB-231; 41.8 µM (inactive) with OVCAR-5; 17.4 µM (inactive) with HCC 2998; 81.8 µM (inactive) in the assay on ACHN; 30.2 µM (inactive) in the assay on MOLT-4. Moreover, the GI50 with SK-OV-3 was 13.7 µM (inactive); in the assay on SNB-75, 53.2 µM (inactive); in the assay on HOP-62, 33.1 µM (inactive); with NCI/ADR-RES it was 25.9 µM (inactive); with HL-60 it was 6.61 µM (inactive); with OVCAR-3, 27.4 µM (inactive). For the same molecule, the GI50 is 40.3 µM (inactive) in the assay on OVCAR-4; 24.3 µM (inactive) with UACC-257; 49.1 µM (inactive) in the assay on SNB-19; 36.5 µM with HCT-15; 22.5 µM (inactive) with UACC-62; 34.9 µM (inactive) in the assay on BT-549. In addition, the GI50 with RXF 393 is 50.2 µM (inactive).
`N#Cc1nc(C(CO)N(Cc2ccccc2)C(=O)O)oc1N` (configuration not stated): the GI50 with MDA-MB-231, in the assay on OVCAR-5, with HCC 2998, in the assay with ACHN, in the assay on MOLT-4 and in the assay on SK-OV-3 was > 100 µM (inactive) in each case. The GI50 in the assay with SNB-75, in the assay on HOP-62, with NCI/ADR-RES, in the assay with HL-60, in the assay with OVCAR-3 and in the assay with OVCAR-4 was > 100 µM (inactive) in each case. For the same molecule, the GI50 with UACC-257 was > 100 µM (inactive); in the assay with HCT-15 it was over 100 µM; with UACC-62, > 100 µM (inactive); in the assay on BT-549 it was > 100 µM (inactive); with RXF 393, > 100 µM (inactive).
